Patent publication US20240057596A1 (priority 2021, published 2024)
Like-named read-outs stand apart in the source and are kept apart here.

What was measured:
Rhizoctonia solani = test: field trial sheath blight on rice in Thailand, percentage disease; format: in vivo; details: 750 g/ha, 2 sprays at 7 day interval; for percentage of disease (%): location L1; for percentage of sheath blight disease (%): location L2
Protocol: A field trial was established to test the efficacy of different compositions for control of sheath blight (Rhizoctonia solani) on rice in Thailand at two locations: L1: Bang Kham, Sriprachan, Suphanburi; and L2: Don Pru, Sriprachan, Suphanburi. Disease inoculation was performed 14 days before 1st spray.
(§1) At location L1, experimental design was randomize complete block (RCB); number of different treatments: six as provided in Table 11; number of replications: 4; plot size: 6×5 m/plot; rice variety: PTT1; and spray volume: 312.5 L/ha. One treatment had 4 replications, with one replication having 10 samplings.
Data assessments included percentage of length (cm) of the symptom infected and length of the plant (cm) before 1st spray; before 2nd spray; 7 days after 2nd spray; at 2 weeks after 2nd spray; at 3 weeks after 2nd spray; and at 2 weeks before harvest.
The percentage disease was calculated as follows:
Disease (%)=[length of infection symptom (cm)/length of plant (cm)]×100
as §1, with “L2,” for “L1,”
Data assessments included percentage of length (cm) of the symptom infected and length of the plant (cm) before 1st spray; before 2nd spray; 7 days after 2nd spray; 2 weeks after 2nd spray; at 3 weeks after 2nd spray; and at 2 weeks before harvest.

rice plants = format: in vivo, rice variety: PTT1; details: 750 g/ha; for Yield (kg/plot): plot 9 m2, 120 DAS

## Cc1cccc2sc3nncn3c12 [Tricyclazole]
Rhizoctonia solani; 2 WBH (106 DAS)
  percentage of disease (%): 35.63 b %
  percentage of sheath blight disease (%): 39.11 b %
Rhizoctonia solani; 7 DAA#2 (89 DAS)
  percentage of disease (%): 35.66 bc %
Rhizoctonia solani; 14 DAA#2 (96 DAS)
  percentage of disease (%): 37.90 c %
Rhizoctonia solani; 21 DAA#2 (103 DAS)
  percentage of disease (%): 35.89 c %
Rhizoctonia solani; BA#1 (before 1st spray, 75 DAS)
  percentage of disease (%): 22.57 a %
Rhizoctonia solani; BA#2 (before 2nd spray, 82 DAS)
  percentage of disease (%): 40.05 bc %
Rhizoctonia solani; 7 DAA#2 (84 DAS)
  percentage of sheath blight disease (%): 37.90 bc %
Rhizoctonia solani; 14 DAA#2 (91 DAS)
  percentage of sheath blight disease (%): 38.71 d %
Rhizoctonia solani; 21 DAA#2 (98 DAS)
  percentage of sheath blight disease (%): 39.75 d %
Rhizoctonia solani; BA#1 (before 1st spray, 70 DAS)
  percentage of sheath blight disease (%): 26.10 a %
Rhizoctonia solani; BA#2 (before 2nd spray, 77 DAS)
  percentage of sheath blight disease (%): 32.67 b %
Rice plants; location L1
  Yield (kg/ha): 5861.11 kg/ha
  Yield (kg/rai): 937.78 kg/rai
  Yield (kg/plot): 5.28 kg/plot
Rice plants; location L2
  Yield (kg/ha): 6638.89 ab kg/ha
  Yield (kg/rai): 1062.22 kg/rai
  Yield (kg/plot): 5.98 kg/plot
